Active and inactive are the calls of the source. No cut-off for these calls is given here.
Each compound was assayed on HeLa (assay: Induction of cell cycle arrest in human HeLa cells assessed as accumulation of cells at S phase at 1 uM incubated for 18 hrs by FACS flow cytometry analysis (reference value: 17.41 +/- 1.16 %)). Conditions: not given.
Assay type: functional

| Structure (SMILES) | Activity |
| --- | --- |
| Cc1[nH]c2c(c1-c1nnc(-c3ccccc3)[se]1)Cc1ccccc1-2 | 10.36% |
| Cc1[nH]c2c(c1-c1nnc(-c3cccc(Cl)c3)[se]1)Cc1ccccc1-2 | 9.44% |

The compounds below were run on HeLa (assay: Induction of cell cycle arrest in human HeLa cells assessed as accumulation of cells at G1 phase at 1 uM incubated for 6 hrs by FACS flow cytometry analysis (reference value: 69.94 +/- 1.71 %)). Conditions: not given.
Assay type: functional

| Structure (SMILES) | Activity |
| --- | --- |
| Cc1[nH]c2c(c1-c1nnc(-c3ccccc3)[se]1)Cc1ccccc1-2 | 24.24% |
| Cc1[nH]c2c(c1-c1nnc(-c3cccc(Cl)c3)[se]1)Cc1ccccc1-2 | 27.87% |

What follows are compounds tested on HeLa (assay: Induction of cell cycle arrest in human HeLa cells assessed as accumulation of cells at S phase at 1 uM incubated for 6 hrs by FACS flow cytometry analysis (reference value: 17.41 +/- 0.96 %)). Conditions: not given.
Assay type: functional

| Structure (SMILES) | Activity |
| --- | --- |
| Cc1[nH]c2c(c1-c1nnc(-c3ccccc3)[se]1)Cc1ccccc1-2 | 70.25% |
| Cc1[nH]c2c(c1-c1nnc(-c3cccc(Cl)c3)[se]1)Cc1ccccc1-2 | 48.5% |

These compounds were tested on HeLa (assay: Induction of apoptosis in human HeLa cells assessed as early apoptotic cells at 1 uM incubated for 24 hrs by Annexin V-FITC/7-AAD staining based flow cytometric analysis (reference value: 2.7 +/- 0.424 %)). Conditions: not given.
Assay type: functional

| Structure (SMILES) | Activity |
| --- | --- |
| Cc1[nH]c2c(c1-c1nnc(-c3ccccc3)[se]1)Cc1ccccc1-2 | 8.9% |
| Cc1[nH]c2c(c1-c1nnc(-c3cccc(Cl)c3)[se]1)Cc1ccccc1-2 | 2.7% |

Each compound was assayed on PC-3 (assay: Induction of cell cycle arrest in human PC-3 cells assessed as accumulation of cells at G2/M phase at 1 uM incubated for 12 hrs by FACS flow cytometry analysis (reference value: 20.74 +/- 1.95 %)). Conditions: not given.
Assay type: functional

| Structure (SMILES) | Activity |
| --- | --- |
| Cc1[nH]c2c(c1-c1nnc(-c3ccccc3)[se]1)Cc1ccccc1-2 | 92.31% |
| Cc1[nH]c2c(c1-c1nnc(-c3cccc(Cl)c3)[se]1)Cc1ccccc1-2 | 89.48% |

These compounds were tested on PC-3 (assay: Induction of cell cycle arrest in human PC-3 cells assessed as accumulation of cells at S phase at 1 uM incubated for 12 hrs by FACS flow cytometry analysis (reference value: 35.06 +/- 1.36 %)). Conditions: not given.
Assay type: functional

| Structure (SMILES) | Activity |
| --- | --- |
| Cc1[nH]c2c(c1-c1nnc(-c3ccccc3)[se]1)Cc1ccccc1-2 | 6.68% |
| Cc1[nH]c2c(c1-c1nnc(-c3cccc(Cl)c3)[se]1)Cc1ccccc1-2 | 8.65% |

What follows are compounds tested on PC-3 (assay: Antiproliferative activity against human PC-3 cells assessed as inhibition of cell growth incubated for 48 hrs by XTT assay). Conditions: PC-3, 48 h.
Assay type: functional, cell-based

| Structure (SMILES) | IC50 |
| --- | --- |
| Cc1[nH]c2c(c1-c1nnc(-c3ccccc3)[se]1)Cc1ccccc1-2 | 72 nM |
| Cc1[nH]c2c(c1-c1nnc(-c3cccc(Cl)c3)[se]1)Cc1ccccc1-2 | 548 nM |

These compounds were tested against T1, Tubulin (Homo sapiens) (UniProt P68371+Q9H4B7+P0DPH7+P68366+Q13509+Q71U36+P04350+Q3ZCM7+P07437+P68363+Q9BQE3+Q6PEY2+Q13885+Q9BVA1+Q9BUF5) (assay: Inhibition of tubulin polymerization in human HeLa cells assessed as irregular cell morphology at 0.5 uM incubated for 6 hrs by DAPI staining based fluorescence microscopic analysis). Conditions: not given.

| Structure (SMILES) | inhibition |
| --- | --- |
| Cc1[nH]c2c(c1-c1nnc(-c3ccccc3)[se]1)Cc1ccccc1-2 | Active |
| Cc1[nH]c2c(c1-c1nnc(-c3cccc(Cl)c3)[se]1)Cc1ccccc1-2 | Active |

Each compound was assayed on MCF7 (assay: Antiproliferative activity against human MCF7 cells assessed as inhibition of cell growth incubated for 48 hrs by XTT assay). Conditions: MCF7, 48 h.
Assay type: functional, cell-based

| Structure (SMILES) | IC50 |
| --- | --- |
| Cc1[nH]c2c(c1-c1nnc(-c3ccccc3)[se]1)Cc1ccccc1-2 | 176 nM |
| Cc1[nH]c2c(c1-c1nnc(-c3cccc(Cl)c3)[se]1)Cc1ccccc1-2 | 216 nM |

The compounds below were run on PC-3 (assay: Induction of cell cycle arrest in human PC-3 cells assessed as accumulation of cells at S phase at 1 uM incubated for 6 hrs by FACS flow cytometry analysis (reference value: 35.06 +/- 1.85 %)). Conditions: not given.
Assay type: functional

| Structure (SMILES) | Activity |
| --- | --- |
| Cc1[nH]c2c(c1-c1nnc(-c3ccccc3)[se]1)Cc1ccccc1-2 | 56.26% |
| Cc1[nH]c2c(c1-c1nnc(-c3cccc(Cl)c3)[se]1)Cc1ccccc1-2 | 54.7% |

These compounds were tested on PC-3 (assay: Induction of cell cycle arrest in human PC-3 cells assessed as accumulation of cells at G2/M phase at 1 uM incubated for 6 hrs by FACS flow cytometry analysis (reference value: 20.74 +/- 1.93 %)). Conditions: not given.
Assay type: functional

| Structure (SMILES) | Activity |
| --- | --- |
| Cc1[nH]c2c(c1-c1nnc(-c3ccccc3)[se]1)Cc1ccccc1-2 | 34.99% |
| Cc1[nH]c2c(c1-c1nnc(-c3cccc(Cl)c3)[se]1)Cc1ccccc1-2 | 34.87% |

The compounds below were run on HeLa (assay: Induction of apoptosis in human HeLa cells assessed as late apoptotic cells at 1 uM incubated for 24 hrs by Annexin V-FITC/7-AAD staining based flow cytometric analysis (reference value: 11.1 +/- 0.778 %)). Conditions: not given.
Assay type: functional

| Structure (SMILES) | Activity |
| --- | --- |
| Cc1[nH]c2c(c1-c1nnc(-c3ccccc3)[se]1)Cc1ccccc1-2 | 19.7% |
| Cc1[nH]c2c(c1-c1nnc(-c3cccc(Cl)c3)[se]1)Cc1ccccc1-2 | 15.4% |

What follows are compounds tested on HeLa (assay: Induction of cell cycle arrest in human HeLa cells assessed as accumulation of cells at G2/M phase at 1 uM incubated for 18 hrs by FACS flow cytometry analysis (reference value: 12.66 +/- 0.92 %)). Conditions: not given.
Assay type: functional

| Structure (SMILES) | Activity |
| --- | --- |
| Cc1[nH]c2c(c1-c1nnc(-c3ccccc3)[se]1)Cc1ccccc1-2 | 88.58% |
| Cc1[nH]c2c(c1-c1nnc(-c3cccc(Cl)c3)[se]1)Cc1ccccc1-2 | 89.4% |

Each compound was assayed on HeLa (assay: Induction of cell cycle arrest in human HeLa cells assessed as accumulation of cells at G1 phase at 1 uM incubated for 18 hrs by FACS flow cytometry analysis (reference value: 69.94 +/- 1.25 %)). Conditions: not given.
Assay type: functional

| Structure (SMILES) | Activity |
| --- | --- |
| Cc1[nH]c2c(c1-c1nnc(-c3ccccc3)[se]1)Cc1ccccc1-2 | 1.06% |
| Cc1[nH]c2c(c1-c1nnc(-c3cccc(Cl)c3)[se]1)Cc1ccccc1-2 | 1.15% |

What follows are compounds tested on PC-3 (assay: Induction of cell cycle arrest in human PC-3 cells assessed as accumulation of cells at G1 phase at 1 uM incubated for 12 hrs by FACS flow cytometry analysis (reference value: 44.2 +/- 2.01 %)). Conditions: not given.
Assay type: functional

| Structure (SMILES) | Activity |
| --- | --- |
| Cc1[nH]c2c(c1-c1nnc(-c3ccccc3)[se]1)Cc1ccccc1-2 | 1.01% |
| Cc1[nH]c2c(c1-c1nnc(-c3cccc(Cl)c3)[se]1)Cc1ccccc1-2 | 1.87% |

These compounds were tested on HeLa (assay: Inhibition of colony formation in human HeLa cells at IC50 incubated for 2 weeks with culture medium replacement for every 3 days by crystal violet staining based analysis). Conditions: not given.
Assay type: functional, cell-based

| Structure (SMILES) | inhibition |
| --- | --- |
| Cc1[nH]c2c(c1-c1nnc(-c3ccccc3)[se]1)Cc1ccccc1-2 | Active |
| Cc1[nH]c2c(c1-c1nnc(-c3cccc(Cl)c3)[se]1)Cc1ccccc1-2 | Active |

What follows are compounds tested on HeLa (assay: Antiproliferative activity against human HeLa cells assessed as inhibition of cell growth incubated for 48 hrs by XTT assay). Conditions: not given.
Assay type: functional, cell-based

| Structure (SMILES) | IC50 |
| --- | --- |
| Cc1[nH]c2c(c1-c1nnc(-c3ccccc3)[se]1)Cc1ccccc1-2 | 9 nM |
| Cc1[nH]c2c(c1-c1nnc(-c3cccc(Cl)c3)[se]1)Cc1ccccc1-2 | 83 nM |

What follows are compounds tested on PC-3 (assay: Induction of cell cycle arrest in human PC-3 cells assessed as accumulation of cells at G1 phase at 1 uM incubated for 6 hrs by FACS flow cytometry analysis (reference value: 44.2 +/- 2.21 %)). Conditions: not given.
Assay type: functional

| Structure (SMILES) | Activity |
| --- | --- |
| Cc1[nH]c2c(c1-c1nnc(-c3ccccc3)[se]1)Cc1ccccc1-2 | 8.76% |
| Cc1[nH]c2c(c1-c1nnc(-c3cccc(Cl)c3)[se]1)Cc1ccccc1-2 | 10.43% |

These compounds were tested against T1, Tubulin (Homo sapiens) (assay: Inhibition of tubulin polymerization in human HeLa cells assessed as aberrations in mitotic spindle and nucleus at 0.5 uM incubated for 6 hrs by DAPI staining based fluorescence microscopic analysis). Conditions: not given.
Assay type: cell-based

| Structure (SMILES) | inhibition |
| --- | --- |
| Cc1[nH]c2c(c1-c1nnc(-c3ccccc3)[se]1)Cc1ccccc1-2 | Active |
| Cc1[nH]c2c(c1-c1nnc(-c3cccc(Cl)c3)[se]1)Cc1ccccc1-2 | Active |

These compounds were tested on HeLa (assay: Induction of cell cycle arrest in human HeLa cells assessed as accumulation of cells at G2/M phase at 1 uM incubated for 6 hrs by FACS flow cytometry analysis (reference value: 12.66 +/- 0.88 %)). Conditions: not given.
Assay type: functional

| Structure (SMILES) | Activity |
| --- | --- |
| Cc1[nH]c2c(c1-c1nnc(-c3ccccc3)[se]1)Cc1ccccc1-2 | 5.51% |
| Cc1[nH]c2c(c1-c1nnc(-c3cccc(Cl)c3)[se]1)Cc1ccccc1-2 | 23.63% |

The compounds below were run on HeLa (assay: Induction of apoptosis in human HeLa cells assessed as viable cells at 1 uM incubated for 24 hrs by Annexin V-FITC/7-AAD staining based flow cytometric analysis (reference value: 85.6 +/- 1.061%)). Conditions: read-out: Activity.
Assay type: functional

| Structure (SMILES) | viability at 1 µM |
| --- | --- |
| Cc1[nH]c2c(c1-c1nnc(-c3ccccc3)[se]1)Cc1ccccc1-2 | 68% |
| Cc1[nH]c2c(c1-c1nnc(-c3cccc(Cl)c3)[se]1)Cc1ccccc1-2 | 80.1% |

The compounds below were run against T1, Tubulin (Homo sapiens) (assay: Inhibition of tubulin polymerization in human HeLa cells assessed as abnormal microtubule network at 0.5 uM incubated for 6 hrs by DAPI staining based fluorescence microscopic analysis). Conditions: not given.
Assay type: cell-based

| Structure (SMILES) | inhibition |
| --- | --- |
| Cc1[nH]c2c(c1-c1nnc(-c3ccccc3)[se]1)Cc1ccccc1-2 | Active |
| Cc1[nH]c2c(c1-c1nnc(-c3cccc(Cl)c3)[se]1)Cc1ccccc1-2 | Active |

The compounds below were run on NB1 (assay: Cytotoxicity against human NB1 cells immortalized with hTERT plasmid assessed as reduction in cell viability at 1 to 2 uM incubated for 48 hrs by XTT assay). Conditions: nb1, 48 h, dose 1-2 µM.
Assay type: toxicity, cell-based

| Structure (SMILES) | Activity |
| --- | --- |
| Cc1[nH]c2c(c1-c1nnc(-c3ccccc3)[se]1)Cc1ccccc1-2 | Non-Toxic |
| Cc1[nH]c2c(c1-c1nnc(-c3cccc(Cl)c3)[se]1)Cc1ccccc1-2 | Non-Toxic |

These compounds were tested on HFF-1 (assay: Cytotoxicity against HFF-1 cells assessed as reduction in cell viability at 1 to 2 uM incubated for 48 hrs by XTT assay). Conditions: human, hff-1, 48 h, dose 1-2 µM.
Assay type: toxicity, cell-based

| Structure (SMILES) | Activity |
| --- | --- |
| Cc1[nH]c2c(c1-c1nnc(-c3ccccc3)[se]1)Cc1ccccc1-2 | Non-Toxic |
| Cc1[nH]c2c(c1-c1nnc(-c3cccc(Cl)c3)[se]1)Cc1ccccc1-2 | Non-Toxic |

These compounds were tested on PC-3 (assay: Inhibition of colony formation in human PC-3 cells at IC50 incubated for 2 weeks with culture medium replacement for every 3 days by crystal violet staining based analysis). Conditions: not given.
Assay type: functional, cell-based

| Structure (SMILES) | inhibition |
| --- | --- |
| Cc1[nH]c2c(c1-c1nnc(-c3ccccc3)[se]1)Cc1ccccc1-2 | Active |
| Cc1[nH]c2c(c1-c1nnc(-c3cccc(Cl)c3)[se]1)Cc1ccccc1-2 | Active |

Each compound was assayed on HeLa (assay: Induction of apoptosis in human HeLa cells assessed as dead cells at 1 uM incubated for 24 hrs by Annexin V-FITC/7-AAD staining based flow cytometric analysis (reference value: 0.6 +/- 0.707 %)). Conditions: not given.
Assay type: functional

| Structure (SMILES) | Activity |
| --- | --- |
| Cc1[nH]c2c(c1-c1nnc(-c3ccccc3)[se]1)Cc1ccccc1-2 | 3.4% |
| Cc1[nH]c2c(c1-c1nnc(-c3cccc(Cl)c3)[se]1)Cc1ccccc1-2 | 1.8% |
